What follows are compounds tested against T1, TsOYE (Thermus scotoductus, UniProt B0JDW3) (assay: anaerobic stopped-flow flavin reduction). Details: apparent; reductive half-reaction; 50 mM MOPS pH 7.0, 5 mM CaCl2, 30 °C.
T1 construct: gene chrR; overexpressed ene reductase with FMN; construct only in supplement
Assay type: biochemical
From the text: anaerobic stopped-flow flavin reduction on TsOYE

| Kd [µM] | SMILES |
| --- | --- |
| 406 ± 12 | CCCCN1C=CCC(C(N)=O)=C1 [compound 2, biomimetic 2] |
| 9 ± 0.6 | NC(=O)C1=CN([C@@H]2O[C@H](COP(=O)(O)OP(=O)(O)OC[C@H]3O[C@@H](n4cnc5c(N)ncnc54)[C@H](OP(=O)(O)O)[C@@H]3O)[C@@H](O)[C@H]2O)C=CC1 [NADPH] |
| 8 ± 0.7 | NC(=O)C1=CN([C@@H]2O[C@H](COP(=O)(O)OP(=O)(O)OC[C@H]3O[C@@H](n4cnc5c(N)ncnc54)[C@H](O)[C@@H]3O)[C@@H](O)[C@H]2O)C=CC1 [NADH] |
| 227 ± 5 | NC(=O)C1=CN(Cc2ccccc2)C=CC1 [compound 1, biomimetic 1] |
